Results as given in ChEMBL document CHEMBL1201862, “PubChem BioAssay data set” (2004).
Active and inactive are the calls of the source.

Tests used:
[1] = biological target: Voltage-dependent T-type calcium channel subunit alpha-1H (Homo sapiens, UniProt O95180); experiment: human CACNA1H calcium influx blockade – cell-based, synthetic library set 1, calcium flux (AID 493022); type: functional
[2] = biological target: T1, Heat shock factor protein 1 (Mus musculus, UniProt P38532); experiment: decrease of HSF1-responsive luciferase luminescence – cell-based, NIH3T3, dose retest, confirmation (AID 2382); type: functional;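 also: NIH3T3 fibroblasts with HSF1-driven luciferase reporter stressed by proteasome inhibitor MG132; luminescence from HSF1-driven luciferase expression after 8 hours of MG132 stress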
T1 sequence (P38532 whole entry): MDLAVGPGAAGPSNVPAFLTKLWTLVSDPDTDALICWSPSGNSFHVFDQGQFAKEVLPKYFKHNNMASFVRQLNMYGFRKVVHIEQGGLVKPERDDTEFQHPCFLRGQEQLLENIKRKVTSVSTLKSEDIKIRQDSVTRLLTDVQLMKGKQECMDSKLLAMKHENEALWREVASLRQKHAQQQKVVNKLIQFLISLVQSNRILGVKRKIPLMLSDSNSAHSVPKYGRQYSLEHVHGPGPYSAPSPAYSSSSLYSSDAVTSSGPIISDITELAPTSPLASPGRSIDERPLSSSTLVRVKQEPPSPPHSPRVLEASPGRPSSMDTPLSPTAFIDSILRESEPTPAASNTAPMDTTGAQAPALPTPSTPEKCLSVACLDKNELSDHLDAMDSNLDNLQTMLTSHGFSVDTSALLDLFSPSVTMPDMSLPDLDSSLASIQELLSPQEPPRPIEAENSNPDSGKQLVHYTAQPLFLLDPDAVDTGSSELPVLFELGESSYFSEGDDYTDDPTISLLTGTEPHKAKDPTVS

[3] = biological target: Luciferin 4-monooxygenase (Photinus pyralis, UniProt P08659); experiment: inhibition of purified Photinus pyralis luciferase – biochemical, luminescence, dose response (AID 1891)
[4] = Luminescence Cell-Based Dose Confirmation HTS to Identify Inhibitors of Platelet Dense Granule Release. [Related pubchem assays: 1663 (Primary HTS), 1678 (Summary of Project)]; type: functional
[5] = biological target: Intestinal-type alkaline phosphatase (Homo sapiens, UniProt P09923); experiment: activation of human intestinal alkaline phosphatase – biochemical, dose response (AID 488873); type: functional
Sequence of Intestinal-type alkaline phosphatase (Homo sapiens, UniProt P09923) (P09923 whole entry): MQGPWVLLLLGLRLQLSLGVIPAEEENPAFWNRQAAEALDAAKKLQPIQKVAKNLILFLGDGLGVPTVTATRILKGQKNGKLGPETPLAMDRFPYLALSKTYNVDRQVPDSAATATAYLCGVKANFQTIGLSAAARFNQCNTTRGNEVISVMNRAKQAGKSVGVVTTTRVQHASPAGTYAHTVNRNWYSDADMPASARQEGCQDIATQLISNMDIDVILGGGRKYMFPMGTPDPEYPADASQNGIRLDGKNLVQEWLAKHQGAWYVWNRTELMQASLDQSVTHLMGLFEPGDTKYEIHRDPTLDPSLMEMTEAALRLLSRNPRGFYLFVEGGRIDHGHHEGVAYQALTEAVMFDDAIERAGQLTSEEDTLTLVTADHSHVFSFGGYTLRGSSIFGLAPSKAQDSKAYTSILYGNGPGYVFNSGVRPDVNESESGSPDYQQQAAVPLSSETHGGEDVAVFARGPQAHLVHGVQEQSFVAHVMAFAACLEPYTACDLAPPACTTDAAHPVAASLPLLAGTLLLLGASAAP

[6] = biological target: Intestinal-type alkaline phosphatase (Mus musculus, UniProt P24822); experiment: PubChem AID 488785; type: functional
[7] = biological target: T2, Alkaline phosphatase, tissue-nonspecific isozyme (Homo sapiens, UniProt P05186); experiment: TNAP enzyme inhibition by screening hits, dose response, selectivity assay for mouse IAP inhibitor project, biochemical, human TNAP, uHTS hits (AID 488906); type: functional
T2 sequence (P05186 whole entry): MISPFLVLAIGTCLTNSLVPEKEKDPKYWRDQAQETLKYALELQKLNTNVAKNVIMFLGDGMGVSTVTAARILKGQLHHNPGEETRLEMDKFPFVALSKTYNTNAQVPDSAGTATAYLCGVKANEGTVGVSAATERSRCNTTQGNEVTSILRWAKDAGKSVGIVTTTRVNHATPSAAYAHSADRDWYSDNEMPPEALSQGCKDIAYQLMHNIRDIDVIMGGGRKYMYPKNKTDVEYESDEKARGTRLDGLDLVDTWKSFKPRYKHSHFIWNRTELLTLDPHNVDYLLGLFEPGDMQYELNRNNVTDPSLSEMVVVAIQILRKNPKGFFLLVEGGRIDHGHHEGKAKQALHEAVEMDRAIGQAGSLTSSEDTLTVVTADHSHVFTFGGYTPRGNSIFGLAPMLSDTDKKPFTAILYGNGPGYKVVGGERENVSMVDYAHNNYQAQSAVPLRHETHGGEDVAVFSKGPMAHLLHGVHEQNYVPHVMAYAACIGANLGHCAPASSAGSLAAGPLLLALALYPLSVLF

[8] = biological target: Eukaryotic translation initiation factor 4H (Homo sapiens, UniProt Q15056); experiment: inhibitors of translation initiation factor eIF4H – SAR follow-up (AID 435011); type: functional
[9] = biological target: Polyadenylate-binding protein 1 (Homo sapiens, UniProt P11940); experiment: PABP inhibition in translation initiation, SAR follow-up (AID 435018); type: functional
[10] = Luminescent dose response cell-based high throughput screening assay for inhibitors of the Janus kinase 2 mutant JAK2V617F. [Related pubchem assays: 1446 (Primary screen.), 1521 (Confirmation assay.), 1486 (Counter screen.)]; type: functional
[11] = tested on: Streptococcus sp. 'group A'; experiment: Streptococcus pyogenes SK(-)GAS viability under kanamycin – luminescence, BacTiterGlo, confirmation, counter-screen for streptokinase expression inhibitor project, dose response (AID 1900); type: functional, organism-based
[12] = biological target: T3, Voltage-gated N-type calcium channel alpha-1B subunit/Amyloid beta A4 precursor protein-binding family A member 1 (Homo sapiens, UniProt Q00975+Q02410); type: protein assay
T3 sequence (Q00975 whole entry): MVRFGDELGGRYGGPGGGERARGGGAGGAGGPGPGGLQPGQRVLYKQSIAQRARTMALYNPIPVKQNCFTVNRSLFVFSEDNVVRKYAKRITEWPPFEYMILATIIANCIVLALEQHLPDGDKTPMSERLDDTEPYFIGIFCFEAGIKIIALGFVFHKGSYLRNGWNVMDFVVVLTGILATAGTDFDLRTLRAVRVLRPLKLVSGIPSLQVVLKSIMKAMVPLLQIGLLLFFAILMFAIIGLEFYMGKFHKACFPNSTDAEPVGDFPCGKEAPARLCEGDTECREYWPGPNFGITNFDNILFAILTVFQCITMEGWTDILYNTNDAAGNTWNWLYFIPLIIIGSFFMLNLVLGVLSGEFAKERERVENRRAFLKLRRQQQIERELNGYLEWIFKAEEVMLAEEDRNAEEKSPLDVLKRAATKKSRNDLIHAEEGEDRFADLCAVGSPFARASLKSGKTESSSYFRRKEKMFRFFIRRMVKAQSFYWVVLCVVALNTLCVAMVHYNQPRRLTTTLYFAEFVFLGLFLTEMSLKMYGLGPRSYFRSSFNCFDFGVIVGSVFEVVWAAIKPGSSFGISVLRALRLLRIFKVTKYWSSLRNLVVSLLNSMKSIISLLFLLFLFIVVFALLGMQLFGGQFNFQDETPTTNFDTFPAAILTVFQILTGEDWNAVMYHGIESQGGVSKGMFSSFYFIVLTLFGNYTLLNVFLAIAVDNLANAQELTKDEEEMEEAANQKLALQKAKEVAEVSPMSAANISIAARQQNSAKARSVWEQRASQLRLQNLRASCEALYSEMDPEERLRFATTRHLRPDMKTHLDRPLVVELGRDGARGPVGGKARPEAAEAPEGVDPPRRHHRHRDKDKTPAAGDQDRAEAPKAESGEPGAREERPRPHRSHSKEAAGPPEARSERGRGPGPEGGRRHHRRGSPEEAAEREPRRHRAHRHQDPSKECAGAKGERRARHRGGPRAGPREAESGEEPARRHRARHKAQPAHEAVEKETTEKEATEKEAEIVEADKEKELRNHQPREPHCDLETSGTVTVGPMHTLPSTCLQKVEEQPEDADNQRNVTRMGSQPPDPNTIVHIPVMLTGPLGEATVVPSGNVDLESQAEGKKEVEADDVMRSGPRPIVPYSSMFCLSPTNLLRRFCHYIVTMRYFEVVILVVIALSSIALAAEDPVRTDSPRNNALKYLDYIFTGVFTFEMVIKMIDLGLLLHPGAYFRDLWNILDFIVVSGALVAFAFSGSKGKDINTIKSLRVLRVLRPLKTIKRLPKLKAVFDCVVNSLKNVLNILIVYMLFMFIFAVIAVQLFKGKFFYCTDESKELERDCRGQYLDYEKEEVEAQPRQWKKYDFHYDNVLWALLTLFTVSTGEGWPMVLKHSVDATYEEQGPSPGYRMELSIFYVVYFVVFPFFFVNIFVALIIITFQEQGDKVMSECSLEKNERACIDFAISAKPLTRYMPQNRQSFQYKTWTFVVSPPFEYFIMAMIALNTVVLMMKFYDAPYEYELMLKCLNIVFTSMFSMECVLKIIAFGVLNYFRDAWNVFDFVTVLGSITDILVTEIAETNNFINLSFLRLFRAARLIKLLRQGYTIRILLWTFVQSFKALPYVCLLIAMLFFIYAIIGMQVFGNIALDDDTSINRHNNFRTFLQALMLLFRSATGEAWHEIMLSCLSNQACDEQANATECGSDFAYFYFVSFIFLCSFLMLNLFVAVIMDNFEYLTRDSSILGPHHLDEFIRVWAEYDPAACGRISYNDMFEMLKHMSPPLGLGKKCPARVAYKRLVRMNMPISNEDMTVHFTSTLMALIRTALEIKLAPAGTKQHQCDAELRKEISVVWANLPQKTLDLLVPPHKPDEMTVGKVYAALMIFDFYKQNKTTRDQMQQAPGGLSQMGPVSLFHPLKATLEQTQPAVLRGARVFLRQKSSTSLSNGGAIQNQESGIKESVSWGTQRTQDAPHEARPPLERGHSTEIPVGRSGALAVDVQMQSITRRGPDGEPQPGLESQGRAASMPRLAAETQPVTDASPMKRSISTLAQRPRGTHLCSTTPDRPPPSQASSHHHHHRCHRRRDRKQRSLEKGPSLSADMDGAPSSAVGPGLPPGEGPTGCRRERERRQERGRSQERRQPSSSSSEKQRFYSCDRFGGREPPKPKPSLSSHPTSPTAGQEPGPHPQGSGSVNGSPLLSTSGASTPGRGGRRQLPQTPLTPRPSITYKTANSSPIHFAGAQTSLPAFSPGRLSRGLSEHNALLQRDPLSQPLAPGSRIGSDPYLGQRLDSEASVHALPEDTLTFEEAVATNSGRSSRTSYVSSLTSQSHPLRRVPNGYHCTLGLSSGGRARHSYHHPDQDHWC
T3 sequence (Q02410 whole entry): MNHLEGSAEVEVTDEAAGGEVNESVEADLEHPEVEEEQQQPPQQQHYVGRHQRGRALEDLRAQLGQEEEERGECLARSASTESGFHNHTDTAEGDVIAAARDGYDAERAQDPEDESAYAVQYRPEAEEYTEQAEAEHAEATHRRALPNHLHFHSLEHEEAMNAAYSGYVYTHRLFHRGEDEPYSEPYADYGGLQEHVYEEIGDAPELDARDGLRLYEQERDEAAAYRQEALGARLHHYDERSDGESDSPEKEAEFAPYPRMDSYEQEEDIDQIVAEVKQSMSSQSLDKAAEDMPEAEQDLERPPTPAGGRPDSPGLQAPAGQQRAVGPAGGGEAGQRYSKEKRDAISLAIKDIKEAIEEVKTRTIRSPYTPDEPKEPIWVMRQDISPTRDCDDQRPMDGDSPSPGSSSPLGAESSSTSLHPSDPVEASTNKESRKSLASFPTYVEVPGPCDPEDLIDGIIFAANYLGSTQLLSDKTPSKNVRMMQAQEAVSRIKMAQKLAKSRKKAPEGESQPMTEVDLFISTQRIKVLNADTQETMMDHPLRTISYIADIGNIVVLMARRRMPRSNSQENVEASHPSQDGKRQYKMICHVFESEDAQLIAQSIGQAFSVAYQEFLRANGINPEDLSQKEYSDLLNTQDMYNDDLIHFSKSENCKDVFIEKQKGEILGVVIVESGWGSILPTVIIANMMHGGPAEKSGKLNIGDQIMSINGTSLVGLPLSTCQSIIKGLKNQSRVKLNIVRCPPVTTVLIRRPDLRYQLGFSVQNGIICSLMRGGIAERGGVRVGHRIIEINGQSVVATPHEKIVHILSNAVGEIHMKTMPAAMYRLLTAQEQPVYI

Streptokinase A = biological target: T4, Streptokinase A (Streptococcus pyogenes serotype M1, UniProt P10520); experiment: viability-normalized secreted streptokinase activity reduction – plasminogen activation absorbance, OD405, dose response (AID 1914); type: functional, Streptococcus pyogenes M1 GAS;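 also: secreted streptokinase activity via plasminogen activation per viability signal from cell pellet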
T4 sequence (P10520 whole entry): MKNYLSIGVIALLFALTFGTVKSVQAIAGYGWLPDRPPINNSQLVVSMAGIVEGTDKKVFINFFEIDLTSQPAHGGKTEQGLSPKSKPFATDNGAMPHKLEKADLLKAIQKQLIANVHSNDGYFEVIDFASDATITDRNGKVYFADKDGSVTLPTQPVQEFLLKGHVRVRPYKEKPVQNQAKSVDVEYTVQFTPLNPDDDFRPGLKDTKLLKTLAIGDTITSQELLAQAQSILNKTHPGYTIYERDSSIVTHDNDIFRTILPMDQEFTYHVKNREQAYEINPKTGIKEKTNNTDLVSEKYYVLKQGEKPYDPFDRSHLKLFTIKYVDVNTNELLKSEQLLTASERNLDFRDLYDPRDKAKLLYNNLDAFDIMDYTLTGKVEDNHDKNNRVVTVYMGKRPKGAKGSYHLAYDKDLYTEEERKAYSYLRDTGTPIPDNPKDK

[13] = biological target: T3, Voltage-gated N-type calcium channel alpha-1B subunit/Amyloid beta A4 precursor protein-binding family A member 1; type: protein assay; remark: listed apart in the source
[14] = Trypanosoma cruzi growth suppression in host cells – NIH3T3 host cells, beta-gal luminescence, confirmation (AID 2044); type: functional, cell-based;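 also: intracellular parasites grown in NIH/3T3 mouse fibroblasts as host cells; luminescent beta-galactosidase reporter signal from transgenic T. cruzi replicating inside host cells; inhibitors lower the luminescence signal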
[15] = NIH3T3 cell viability loss – ATP luminescence, mouse fibroblasts, counter-screen, dose response (AID 2010); type: functional, cell-based;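 also: cells exposed to compound for about 90 hours before reading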
Streptococcus = experiment: GAS UMAA2166 growth inhibition – luminescence, BacTiterGlo, counter-screen for streptokinase expression inhibitor project, dose response (AID 1915); type: functional, organism-based;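 also: potency for reduction of bacterial viability or growth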
[16] = biological target: Glucose-6-phosphate 1-dehydrogenase (Homo sapiens, UniProt P11413); experiment: inhibition of Homo sapiens G6PD, dose series – biochemical, fluorescence, selectivity assay for P. falciparum G6PD inhibitor project, dose response (AID 504792); type: functional
Beta-galactosidase = Beta-galactosidase (Escherichia coli, UniProt Q8VNN2); experiment: detection-enzyme interference by beta-gal modulators – biochemical, E. coli enzyme, set 3, artefact control for CCR6 antagonist project, dose response (AID 504712); type: functional
Sequence of Beta-galactosidase (Q8VNN2 whole entry, the tested form may be a part): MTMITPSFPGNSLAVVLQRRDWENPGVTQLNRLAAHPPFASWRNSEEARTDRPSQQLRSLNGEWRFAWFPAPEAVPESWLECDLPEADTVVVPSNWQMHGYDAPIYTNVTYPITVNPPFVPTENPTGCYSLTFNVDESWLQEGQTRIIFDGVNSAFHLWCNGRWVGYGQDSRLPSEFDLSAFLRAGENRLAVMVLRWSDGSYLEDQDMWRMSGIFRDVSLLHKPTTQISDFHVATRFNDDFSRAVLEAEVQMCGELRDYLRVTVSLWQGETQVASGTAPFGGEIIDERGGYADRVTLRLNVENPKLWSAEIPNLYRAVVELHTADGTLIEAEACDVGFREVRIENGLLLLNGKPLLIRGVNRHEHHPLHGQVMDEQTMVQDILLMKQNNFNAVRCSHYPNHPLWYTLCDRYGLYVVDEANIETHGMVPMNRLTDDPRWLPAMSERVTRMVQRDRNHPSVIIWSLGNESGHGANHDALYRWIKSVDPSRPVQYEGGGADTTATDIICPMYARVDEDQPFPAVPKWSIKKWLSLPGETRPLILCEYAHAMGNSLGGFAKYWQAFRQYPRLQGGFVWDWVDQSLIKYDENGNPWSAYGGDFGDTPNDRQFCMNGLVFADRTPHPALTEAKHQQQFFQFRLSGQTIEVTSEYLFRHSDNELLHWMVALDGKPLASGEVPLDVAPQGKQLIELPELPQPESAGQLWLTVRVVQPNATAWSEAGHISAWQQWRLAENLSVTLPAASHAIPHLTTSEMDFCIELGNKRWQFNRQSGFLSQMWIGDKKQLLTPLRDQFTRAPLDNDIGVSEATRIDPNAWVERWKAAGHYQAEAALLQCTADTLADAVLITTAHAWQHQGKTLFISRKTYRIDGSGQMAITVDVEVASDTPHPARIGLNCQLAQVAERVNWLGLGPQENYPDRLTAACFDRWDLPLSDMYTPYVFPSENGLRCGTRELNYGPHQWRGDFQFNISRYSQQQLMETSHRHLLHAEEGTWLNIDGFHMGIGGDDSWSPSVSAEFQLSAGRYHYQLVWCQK

CHO = CHO cell viability loss, potency – luminescence, cytotoxicity control for TLR9-MyD88 binding inhibitor project, dose response (AID 588339); type: functional, cell-based, hamster; settings: Cricetulus griseus;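 also: CHO cells stably coexpressing TLR9 and MyD88 fusions from primary screen; compound exposure lasted 48 hours before viability readout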
[17] = biological target: Heat shock protein HSP 90-alpha (Homo sapiens, UniProt P07900); type: functional, organism-based
Melanocortin receptor 4 = Melanocortin receptor 4 (Homo sapiens, UniProt P32245); experiment: inhibitors of MC4R cAMP signaling – cell-based, TR-FRET, biased antagonists, dose response (AID 602298); type: functional;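 also: antagonist potency against agonist-stimulated cAMP production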
Sequence of Melanocortin receptor 4 (P32245 whole entry): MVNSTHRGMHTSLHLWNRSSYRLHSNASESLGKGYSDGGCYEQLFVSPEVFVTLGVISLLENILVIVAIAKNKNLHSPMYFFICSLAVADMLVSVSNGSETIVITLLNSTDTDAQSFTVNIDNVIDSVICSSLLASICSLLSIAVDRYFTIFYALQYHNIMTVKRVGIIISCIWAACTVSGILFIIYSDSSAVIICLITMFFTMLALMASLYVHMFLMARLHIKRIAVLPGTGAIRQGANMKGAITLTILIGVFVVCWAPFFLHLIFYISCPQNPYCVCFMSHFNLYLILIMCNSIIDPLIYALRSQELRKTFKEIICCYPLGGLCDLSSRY

[18] = reduction of Shn3 3'UTR-driven luciferase in osteoblasts – cell-based, Clone20 osteoblasts, firefly luciferase, cherry-picked, dose response (AID 624132); type: functional;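 also: firefly luciferase luminescence from reporter carrying the Shn3 3'UTR in osteoblasts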
[19] = loss of viability in HepG2 cells – cell-based, CellTiter-Glo, cherry-picked, cytotoxicity control for Shn3 inhibitor project, dose response (AID 624134); type: functional
[20] = non-specific 3'UTR reporter inhibition in Clone20-Shn3RL – cell-based, Renilla luciferase, cherry-picked, counter-screen for Shn3 inhibitor project, dose response (AID 624133); type: functional
[21] = cAMP pathway inhibition in counterscreen cell line – TR-FRET cAMP detection, counter-screen for MC4R biased antagonist project, dose response (AID 602305); type: functional, cell-based;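 also: U2OS cells stimulated with forskolin near its EC80 as the cAMP inducer; potency is for inhibition of forskolin-stimulated cAMP signaling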

For `O=C(COc1ccc(F)cc1Cl)Nc1nnc(-c2ccc3c(c2)OCO3)o1`, the EC50 [1] was 2.1 µM (active).

With `CN(C)c1ccc(N=Nc2nc3ccccc3n2C)cc1` the EC50 [2] was 0.429 µM (inconclusive), the EC50 [3] was 0.213 µM (active) and the EC50 [4] was 0.208 µM (active). For the same molecule, the EC50 [5] was > 100 µM (inactive), the IC50 [6] was 27.6 µM (active) and the IC50 [7] was 36.9 µM (active).

In the case of `COc1ccc(NC(=O)C2CC(=O)N(C)/C(=N\c3ccccc3OC)S2)cc1` (stereo unspecified), the IC50 [8] is reported as > 100 µM (inactive) and the IC50 [9] is reported as > 100 µM (inactive).

In the case of `O=C1C=CC(=O)N1CCNc1ncc(C(F)(F)F)cc1Cl`, the IC50 [10] is reported as 0.383 µM (active), the EC50 [11] is reported as 10.4 µM (active) and the IC50 [12] is reported as 12 µM (active). The EC50 (Streptokinase A) was > 150 µM (not active), the IC50 [13] was 1.53 µM (active) and the EC50 [14] was 2.78 µM (active). For the same molecule, the EC50 [15] was 3.98 µM (active), the EC50 (Streptococcus) was > 150 µM (not active) and the IC50 [16] was > 80 µM (inactive). The IC50 (Beta-galactosidase) was > 66.6 µM (inactive), the IC50 (CHO) was 1.62 µM (active) and the AC50 [17] was 0.482 µM (active). The IC50 (Melanocortin receptor 4) was 12.3 µM (inactive), the AC50 [18] was 0.947 µM (active) and the AC50 [19] was 16 µM (active). The AC50 [20] was 11.9 µM (active) and the IC50 [21] was 15.1 µM (inactive).
